Experimental data reported in article PMC9656482, “In Vitro and In Vivo Biological Activity of Ruthenium 1,10-Phenanthroline-5,6-dione Arene Complexes” (International Journal of Molecular Sciences, 2022).

How the values were obtained:
[1] = tested on: A2780 ovarian carcinoma cell line; assay: MTS antiproliferative assay, A2780; format: cell-based, human; details: 48 h incubation, MTS; read-out: Relative IC50, A2780
Description: (§3) Normal dermal human fibroblasts, colorectal carcinoma cell line HCT116 and ovarian carcinoma cell line A2780 were acquired from ATCC (Manassas, VA, USA). […] Fibroblasts and HCT116 cells were cultured in Dulbecco’s modified Eagle medium (DMEM, Thermo Fisher Scientific) and A2780 cell line was cultured on Roswell Park Memorial institute 1640 (RPMI-1640, Thermo Fisher Scientific). Both media were supplemented with 10% (v/v) fetal bovine serum (FBS, Thermo Fisher Scientific) and a mixture of 100 U/mL penicillin and 100 mg/mL streptomycin. The supplemented media are referred to from this point on as DMEM or RPMI for simplicity. […] All experiments underwent at 37 °C, 5% (v/v) CO2 and 99% (v/v) humidity in the dark.
(§4) Cells were seeded in a 96-well plate in a density of 7500 cells/well, and after 24 h was submitted to a concentration range between 0.1–50 µM of complexes JHOR10 and JHOR11. DMSO with a 0.1% (v/v) concentration was used as vector control and cisplatin was used as positive control in all replicates. After 48 h incubation, cellular viability was inferred with the Cell Titer 96® Aqueous One solution cell proliferation assay (Promega, Madison, WI, USA) according to the manufacturer’s instructions and procedures previously described [18, 40]. The absorbance of the produced Formazan was quantified with a Tecan microplate reader, Infinite M200 (Tecan, Mannedorf, Switzerland) and the analysis of the dose–response curves to determine the relative IC50 was performed with GraphPad Prism 8.2.1 software (GraphPad Software, La Jolla, CA, USA).

[2] = tested on: HCT116 colorectal carcinoma cell line; assay: MTS antiproliferative assay, HCT116; format: cell-based, human; details: 48 h incubation, MTS; read-out: Relative IC50, HCT116
Description: as §3, §4

[3] = Stability in DMSO-d6-D2O solution by 1H NMR; format: physicochemical; details: DMSO-d6-D2O 3:7 (v/v), 110 mM chloride
Description: To evaluate the stability of complexes in a cell culture medium, powdered complexes were first solubilized in DMSO and then immediately in DMEM, in order to guarantee that no more than 0.1% (v/v) DMSO was present in the medium. […] In addition, the stability of the complexes in solution was investigated by ^1H NMR spectroscopy. The ruthenium complexes were dissolved in DMSO-d6-D2O, in a 3:7 ratio (v/v) with a 110 mM chloride concentration, and the ^1H NMR spectra was recorded immediately and after 48 h. […] This observation is in agreement with the M–Cl aquation processes described for several metallic compounds, such as cisplatin [23]. After 48 h, the ^1H NMR spectrum of JHOR10 was unchanged.
The stability of complexes was evaluated in DMEM (Dulbecco’s modified Eagle’s medium). Powdered complexes JHOR10 and JHOR11 were solubilized in DMSO and then immediately diluted in DMEM without phenol red (Thermo Fisher Scientific, Waltham, MA, USA) to a final concentration of 100 µM, assuring that the final concentration of DMSO was not higher than 0.1% (v/v). The UV-visible spectrum was measured after an incubation at 37 °C for 24 or 48 h (DMEM) in a wavelength range between 260 and 800 nm, using a quartz cuvette with 1 cm path length. A total of 2 mg of each compound was dissolved in DMSOd6-D2O 3:7 (v/v) 110 mM chloride concentration (NaCl), and the ^1H NMR were recorded at 0 h and 48 h on a Bruker Avance III 400 MHz.

[4] = tested on: doxorubicin-resistant HCT116 (HCT116-Dox); details: read-out: Relative IC50, HCT116-Dox; 48 h incubation, MTS
Description: (§1) The cytotoxic potential of the complexes was evaluated by assessing their viability using the 3-(4,5-dimethylthiazol-2-yl)-5-(3-carboxymethoxyphenyl)-2-(4-sulfophenyl)-2H tetrazolium, inner salt (MTS) colorimetric assay in three tumor cell lines—ovarian carcinoma, A2780, colorectal carcinoma, HCT116, and colorectal carcinoma resistant to doxorubicin, HCT116-Dox and in normal human primary dermal fibroblasts (Figure 1 and Figure S7).
(§2) Normal dermal human fibroblasts, colorectal carcinoma cell line HCT116 and ovarian carcinoma cell line A2780 were acquired from ATCC (Manassas, VA, USA). HCT116 cell lines resistant to doxorubicin (HCT116-Dox) were derived from the HCT116 cell line, as previously described. Fibroblasts and HCT116 cells were cultured in Dulbecco’s modified Eagle medium (DMEM, Thermo Fisher Scientific) and A2780 cell line was cultured on Roswell Park Memorial institute 1640 (RPMI-1640, Thermo Fisher Scientific). Both media were supplemented with 10% (v/v) fetal bovine serum (FBS, Thermo Fisher Scientific) and a mixture of 100 U/mL penicillin and […] streptomycin. The supplemented media are referred to from this point on as DMEM or RPMI for simplicity.

[5] = tested on: normal human dermal fibroblasts; details: read-out: Relative IC50, Fibroblasts; 48 h incubation, MTS
Description: as §1, §2

zebrafish embryos = assay: In vivo toxicity assessment using zebrafish embryos; details: zebrafish embryos exposed from 72 hpf, 96 h
Description: The toxicity of the JHOR10 and JHOR11 compounds was assayed in zebrafish embryos. There was a NOEC (No Observed Effect Concentration) in the case of JHOR11 of 80 µM (Table 2). The NOEC is the concentration used for the xenotransplantation experiments in order not to affect the normal development of the embryos and being able, in parallel, to assay the effect of the compound over the injected cells. Apart from that, the mortality assayed in the toxicity assays supports the concentration obtained in the NOEC, with a low mortality of the embryos when they are incubated with JHOR11 (Figure 13 and Figure 14).
Wild-type zebrafish were housed in 30 L tanks within a water recirculation system under controlled physicochemical conditions: pH 7–7.5, temperature 26 ± 2 °C, conductivity 600 µS/cm and light/dark photoperiod of 14/10 h. The adult fish were fed Gemma Micro 300 (Skretting) twice a day. Fertilized eggs were collected after natural spawning and stored in Petri dishes for 48 h until being injected, or 72 h until being exposed to different concentrations of ruthenium compounds.
At 72 h post-fertilization (hpf), the embryos were exposed to increasing concentrations of two ruthenium compounds to determine toxicological estimates: LC50 with no observed effect concentration (NOEC) and lowest observed effect concentration (LOEC). The acute toxicity assessment of the compounds was performed following the standards of the OECD Test Guideline Program.
The embryos were individually transferred to 96-well plates containing 100 µL of each desired concentration. The plates were then placed in an incubator with a temperature of 26 °C and a photoperiod of 14 h of light and 10 h of darkness. The duration of the experiment was 96 h, and observations were made every 24 h recording the four lethal effects indicated by the OECD: embryo coagulation, absence of somite formation, absence of separation of the yolk tail and absence of heartbeat. All compounds were dissolved with dimethylsulfoxide (DMSO) with a final concentration of 1%. In each test, seven concentrations were analyzed for each compound, these being: JHOR10 (10, 20, 30, 40, 50, 55, 60 µM) and JHOR11 (50, 80, 100, 140, 200, 300, 400 µM).
For the evaluation of toxicity, the mortality data were analyzed by probit analysis with the ToxRat software (ToxRat Solutions. 2003. ToxRat®. Software for the statistical analysis of biotests. Alsdorf, Germany).

A2780 cells = assay: Cell cycle analysis (PI staining); format: cell-based, human; details: A2780 synchronized with thymidine; IC50 of JHOR11 or 0.1 µM doxorubicin; 5-32 h, relative to DMSO
Description: To understand if the complex also presents a cytostatic effect, the cell cycle of A2780 cells was analyzed by DNA staining with PI, after double synchronization with thymidine at the S phase.
The cell cycle analysis was performed by DNA staining with PI according to procedures previously described with few modifications. A2780 cells were seeded in 6-well plates in a cell density of 4 × 10^5 cells/well and the cell cycle was synchronized in the S-phase by double blocking with 2 mM thymidine. […] After 5 h, 9 h, 24 h or 32 h, cells were detached, fixed with 80% (v/v) ethanol, incubated with 50 mg/mL RNase A (NZYtech, Lisbon, Portugal) and stained with […] PI (Thermo Fisher Scientific). The fluorescence of each sample was analyzed in an Attune acoustic focusing cytometer and respective software (Thermo Fisher Scientific).

SMILES | IC50 [1] [µM] | IC50 [2] [µM] | stability in solution by 1H NMR after 48 h ([3]; 48 h) | stability in solution by 1H NMR at t = 0 h ([3]; t = 0 h) | IC50 [4] [µM] | IC50 [5] [µM] | LC50 (zebrafish embryos) [µM] | LOEC (Lowest Observed Effect Concentration) (zebrafish embryos) [µM] | NOEC (No Observed Effect Concentration) (zebrafish embryos) [µM] | cell cycle effect (A2780 cells)
N.N.[Cl][Pt][Cl] [Cisplatin, reference compound] | 1.9 ± 0.2 | 15.6 ± 5.3 |  |  |  |  |  |  |  | 
Cc1ccc(C(C)C)cc1.O=C1C(=O)c2cccnc2-c2ncccc21.O=S(=O)([O-])C(F)(F)F.[Cl][Ru+] [JHOR10, [Ru{p-C6H4(Me)(iPr)}{(Dione)Cl][CF3SO3]] | 5.3 ± 0.3 | 25.7 ± 1.3 | unchanged | new sets of resonances appeared | > 50 | > 50 | 29.8 | 20.00 | 10.00 | 
COc1cccc2c1C(=O)c1c(O)c3c(c(O)c1C2=O)C[C@@](O)(C(=O)CO)C[C@@H]3O[C@H]1C[C@H](N)[C@H](O)[C@H](C)O1 [doxorubicin, reference compound] |  |  |  |  |  |  |  |  |  | cell cycle arrest at G2/M phase
